The values below come from US10010560B2, “Small molecule HSP70 inhibitors” (THE TRUSTEES OF THE UNIVERSITY OF PENNSYLVANIA, priority 2014, dated 2018).

The test system of experiment [1] is E. coli DH5α. Briefly: Growth of E. coli DH5α at 43° C. In kind it is cell-based. As to the method:
FIGS. 2A-2D illustrate the cytotoxicity of PET-16 to human tumor cells and its inhibition on E. coli growth. FIG. 2A is a line graph with data obtained from MTT assays of human melanoma cell lines treated with the indicated concentrations of PES or PET-16 for 72 h. The corresponding cell survival is normalized to vehicle (DMSO) treatment. Average and standard deviation (s.d.) from three independent experiments are shown. FIG. 2B are bar graphs of human melanoma (A875) cells and nontransformed human (IMR90) fibroblasts that were treated with DMSO, 10 μM PES or 10 μM PET-16 for 24 h. […] FIG. 2C is a line graph illustrating the growth of E. coli DH5α treated with different concentrations of PES or PET-16 for 6 h at 43° C. Error bars represent the s.d. of four independent experiments. FIG. 2D is a bar graph illustrating the growth of E. coli DH5α treated with DMSO, 30 μM PET-16 or 30 μM TPP for 6 h at 43° C. Error bars represent the s.d. of four independent experiments.
FIGS. 9A-9H illustrate that PET-16 binds directly to ADP-bound HSP70 and is cytotoxic to human tumor cells. FIGS. 9A-9C are ITC assays of the interaction of PET-3C with purified human HSP70-ADP (A), human HSP70-ATP (B) and DnaK-ADP (C) proteins. The data are representative of three independent experiments. FIG. 9D is a line graph of an MTT assay of the human melanoma cell line 1205 Lu treated with the indicated concentrations of PET-16 (---) or PET-3C (-) for 72 h. The corresponding cell survival is normalized to the DMSO-treatment. Average and standard deviation (s.d.) from three independent experiments are shown. FIG. 9E is a line graph illustrating the growth of E. coli DH5α strain treated with different concentrations of PET-16 (black) or PET-3C (gray) for 6 h at 43° C. Error bars represent the s.d. of four independent experiments. FIG. 9F is a bar graph illustrating the growth of E. coli DH5α treated with DMSO, 30 μM PET-16, 30 μM PET-3C or 30 μM TPP for 6 h at 43° C. Error bars represent the s.d. of four independent experiments. […]

Experiment [2] addresses T1, ADP-HSP70 N505D (Homo sapiens, UniProt P0DMV8, E110D/N505D).
T1 construct: The full-length HSP70 and DnaK mutants were constructed by PCR-based site-directed mutagenesis; His6 (N); made in house; host or cells: E. coli BL21 Star (DE3)
Briefly: ITC, mutated full-length ADP-HSP70. As to conditions: ADP-HSP70 mutant N505D. In kind it is binding. The text has this:
The human stress-inducible HSP70 (residues 1-641 or 386-616 of SEQ ID NO: 2) and E. coli DnaK (residues 1-638, 389-607, or 393-507 of SEQ ID NO: 4) were cloned into the pET25 vector (EMD Millipore Chemicals, Inc., Billerica, Mass., USA) between the NdeI and XhoI restriction sites. The full-length HSP70 and DnaK mutants were constructed by PCR-based site-directed mutagenesis using the QuikChange™ Site-Directed Mutagenesis Kit (Agilent Technologies, Inc., Santa Clara, Calif., USA). All plasmid inserts were verified by DNA sequencing. All HSP70 and DnaK variants were produced with a N-terminal His6-tag in the E. coli BL21 Star (DE3) strain (Invitrogen catalog number C6010-03). The resulting strains were grown at 37° C. in LB medium containing 50 μg/mL of carbenicillin (Sigma-Aldrich Co., St. Louis, Mo., USA). At an OD600 about 0.3 to about 0.5, protein expression was induced with 0.5 mM isopropyl-β-D-thiogalactopyranoside (IPTG), and cells were subsequently grown at 25° C. for about 16 h. Cells were collected by centrifugation and resuspended in the Bugbuster® Master Mix (EMD Millipore Chemicals catalog number 71456-4), supplemented with protease inhibitors, 1 mM diethiothreitol (DTT) and 20 mM imidazole. The His6-tagged fusion proteins were isolated on Ni^2+-chelating resins (Ni-NTA Superflow, Qiagen catalog number 30410) by standard procedures. When necessary, size-exclusion chromatography on a Superdex® 200 or a Superose® 6 10/300 GL columns (GE Healthcare) analytical column pre-equilibrated with 1× Dulbecco's Phosphate Buffered Saline (DPBS—Invitrogen 14190-136), 1 mM Tris-HCl (pH 7.4) or 10 mM Tris-HCl (pH 7) was used as the final purification step. The purified DnaK proteins were dialyzed thoroughly against 1× DPBS with 5 mM DTT at 4° C., for crystallization trials involving the small molecule inhibitor PET-16. For isothermal titration calorimetry studies, all HSP70 and DnaK variants were dialyzed extensively against the buffers as noted below under the section entitled “Isothermal Titration calorimetry Studies”. The dialyzed proteins were subsequently microcentrifugated at 15,000×g for 5 min at 4° C. and aliquots of the soluble proteins were stored at −80° C.
All ITC experiments were performed using a MicroCal VP-ITC isothermal titration calorimeter (MicroCal). Both full-length HSP70 and DnaK proteins and DnaK (aa 393-507) proteins were prepared in 1 mM Tris-HCl (pH 7.4) buffer containing 3% dimethylsulfoxide (DMSO). The HSP70 (aa 386-616) protein was prepared in buffer containing 3% DMSO and 10 mM Tris-HCl, pH 7. The syringe was loaded with purified protein in either 1 mM Tris-HCl (pH 7.4) buffer containing 3% DMSO or 10 mM Tris-HCl (pH 7) buffer containing 3% DMSO. The sample cell of the calorimeter was loaded with PES, PET-16 or NRLLLTG (SEQ ID NO: 7) prepared in the same buffer. All solutions were degassed for 5 min.
The titrations involving the full-length purified proteins were performed at 25° C. with injection volumes of 12 μL and a spacing of 300 s. The titrations involving the purified HSP70 (aa 386-616) and DnaK (aa 393-507) were performed at 42° C. with injection volumes of 12 μL and a spacing of 300 s. Heat from the pre-injection was not used during fitting. The data were fit using a one-site binding model available in the Origin® ITC data analysis software (MicroCal Origin® V5.0, MicroCal Software, Northampton, Mass.). Error values obtained from the MicroCal Origin® V5.0 software were averaged and reported.
The information from crystal structure analysis pointed to particular amino acid residues as potential contact sites for interaction with PET-16. Single point mutants were thereby introduced in the context of a full-length DnaK protein, as well as at the corresponding residues within HSP70; these mutant proteins were analyzed by ITC for ability to bind to PET-16. The DnaK mutations included residues L392D, P396L, L399R, G482D, A503D and […]; those in HSP70 were L394D, P398L, L401R, G484D, N505D and D506A. […]

T1 sequence (P0DMV8 whole entry E110D/N505D): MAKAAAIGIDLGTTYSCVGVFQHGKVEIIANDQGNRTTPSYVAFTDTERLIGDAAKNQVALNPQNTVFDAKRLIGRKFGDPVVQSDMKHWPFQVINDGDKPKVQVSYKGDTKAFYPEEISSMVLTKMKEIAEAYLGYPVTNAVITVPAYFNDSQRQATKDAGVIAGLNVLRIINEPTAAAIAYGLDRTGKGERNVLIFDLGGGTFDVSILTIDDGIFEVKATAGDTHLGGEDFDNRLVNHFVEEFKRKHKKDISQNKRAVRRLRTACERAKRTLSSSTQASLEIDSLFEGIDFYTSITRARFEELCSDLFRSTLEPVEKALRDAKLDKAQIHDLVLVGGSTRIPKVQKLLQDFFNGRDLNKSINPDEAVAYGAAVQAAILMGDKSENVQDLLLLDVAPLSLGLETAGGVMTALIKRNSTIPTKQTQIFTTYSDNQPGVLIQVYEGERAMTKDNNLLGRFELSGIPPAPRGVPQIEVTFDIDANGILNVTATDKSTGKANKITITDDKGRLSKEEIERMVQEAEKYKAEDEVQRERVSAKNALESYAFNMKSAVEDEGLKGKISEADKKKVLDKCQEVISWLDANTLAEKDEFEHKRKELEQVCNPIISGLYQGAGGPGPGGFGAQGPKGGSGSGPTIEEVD

On to `C(#C[P+](c1ccccc1)(c1ccccc1)c1ccccc1)c1ccccc1.[Br-]` [PET-16, triphenyl(phenylethynyl)phosphonium bromide], for which the E. coli phenotype result in experiment [1] is “cell filamentation and reduced viability”. For the same compound, in experiment [1] (6 h at 43° C.), the “effect on growth of E. coli” value is “impaired bacterial growth”. In experiment [2], this compound had a Kd of 147 ± 6.5 µM.
